Source: patent US5614192A, “T cell receptor peptides as therapeutics for immune-related disease” (Connective Therapeutics, Inc., priority 1993, dated 1997)
Ends that are not written are not given here.

System: popliteal LN cells
Test: Proliferation of LN cells after EAE induction and TCR peptide treatment (Table 23)
Assay type: cell-based, Lewis rats
Experimental: The proliferative responses and specificity of T cells in the draining LN (popliteal) of rats treated with TCR Vβ8(39-59) peptide for EAE on day 13 after disease induction were examined (Table 23). On day 0, Lewis rats received an EAE-inducing regimen of GP-BP+CFA SC into their hind footpads. […] On day 20, about 7 days after onset of EAE, popliteal LNs were removed and T cell proliferative activity in response to the indicated antigens or mitogens were tested directly.
Results are shown as net ^3 Hthymidine incorporation of 5 ×

## DMGHGLRLIHYSYDVNSTEKG [TCR Vβ8(39-59), 21-amino acid CDR2 peptide of rat TCR Vβ8]
LN cells day 20 of Control rats (saline day 13)
  T Cell Proliferation: 31 cpm × 10^-3
LN cells of rats given TCR Vβ 8(39-59) 50 μg ID day 13
  T Cell Proliferation: 30 cpm × 10^-3
LN cells of rats given TCR Vβ 8(39-59) 100 μg SC (in CFA) day 13
  T Cell Proliferation: 39 cpm × 10^-3
